{
  "source": "patent US9144229B2",
  "about": "“Tissue specific expression of antibodies in chickens” (Synageva BioPharma Corp., priority 2002, dated 2015)",
  "system": "chicken embryonic stem cells",
  "experiment": "Titration kill curve of chicken ES cells under puromycin or neomycin selection",
  "type": "cell-based",
  "design": "key to Morphology of cES cells: ES cells are present.; ES cells are differentiated.; gone: no morphologically recognizable cells are present",
  "experimental": "In a preferred embodiment, the concentration of puromycin required for selecting transfected cells is calculated as a titration kill curve. Titration kill curves for chicken embryonic stem cells are established by exposing cells in culture to puromycin concentrations varying from 0.0 to 1.0 μg/ml for 10 days (Table 7) and neomycin concentrations varying from 0.0 to 200 μg/ml (Table 8). The medium is changed every 2 days and fresh puromycin or neomycin is added. […] Puromycin concentrations of 0.3-1.0 μg/ml are used for selection of the transfected cultures. Neomycin concentrations over 40 μg/ml eliminated all cES cells within 7 days (Table 8).",
  "data": [
    {"substance": "neomycin", "values": [
      {"measurement": "Morphology of cES cells", "setting": "neomycin 10 μg/ml, day 1", "result": "ES"},
      {"measurement": "Morphology of cES cells", "setting": "neomycin 10 μg/ml, day 2", "result": "ES"},
      {"measurement": "Morphology of cES cells", "setting": "neomycin 10 μg/ml, day 3", "result": "ES"},
      {"measurement": "Morphology of cES cells", "setting": "neomycin 10 μg/ml, day 4", "result": "ES"},
      {"measurement": "Morphology of cES cells", "setting": "neomycin 10 μg/ml, day 5", "result": "ES"},
      {"measurement": "Morphology of cES cells", "setting": "neomycin 10 μg/ml, day 6", "result": "ES"},
      {"measurement": "Morphology of cES cells", "setting": "neomycin 10 μg/ml, day 7", "result": "ES"},
      {"measurement": "Morphology of cES cells", "setting": "neomycin 10 μg/ml, day 8", "result": "ES"},
      {"measurement": "Morphology of cES cells", "setting": "neomycin 10 μg/ml, day 9", "result": "ES"},
      {"measurement": "Morphology of cES cells", "setting": "neomycin 10 μg/ml, day 10", "result": "ES"},
      {"measurement": "Morphology of cES cells", "setting": "neomycin 20 μg/ml, day 1", "result": "ES"},
      {"measurement": "Morphology of cES cells", "setting": "neomycin 20 μg/ml, day 2", "result": "ES"},
      {"measurement": "Morphology of cES cells", "setting": "neomycin 20 μg/ml, day 3", "result": "ES"},
      {"measurement": "Morphology of cES cells", "setting": "neomycin 20 μg/ml, day 4", "result": "ES"},
      {"measurement": "Morphology of cES cells", "setting": "neomycin 20 μg/ml, day 5", "result": "ES"},
      {"measurement": "Morphology of cES cells", "setting": "neomycin 20 μg/ml, day 6", "result": "ES"},
      {"measurement": "Morphology of cES cells", "setting": "neomycin 20 μg/ml, day 7", "result": "ES"},
      {"measurement": "Morphology of cES cells", "setting": "neomycin 20 μg/ml, day 8", "result": "ES"},
      {"measurement": "Morphology of cES cells", "setting": "neomycin 20 μg/ml, day 9", "result": "ES"},
      {"measurement": "Morphology of cES cells", "setting": "neomycin 20 μg/ml, day 10", "result": "ES"},
      {"measurement": "Morphology of cES cells", "setting": "neomycin 30 μg/ml, day 1", "result": "ES"},
      {"measurement": "Morphology of cES cells", "setting": "neomycin 30 μg/ml, day 2", "result": "ES"},
      {"measurement": "Morphology of cES cells", "setting": "neomycin 30 μg/ml, day 3", "result": "ES"},
      {"measurement": "Morphology of cES cells", "setting": "neomycin 30 μg/ml, day 4", "result": "ES"},
      {"measurement": "Morphology of cES cells", "setting": "neomycin 30 μg/ml, day 5", "result": "ES"},
      {"measurement": "Morphology of cES cells", "setting": "neomycin 30 μg/ml, day 6", "result": "ES"},
      {"measurement": "Morphology of cES cells", "setting": "neomycin 30 μg/ml, day 7", "result": "ES/Diff"},
      {"measurement": "Morphology of cES cells", "setting": "neomycin 30 μg/ml, day 8", "result": "ES/diff"},
      {"measurement": "Morphology of cES cells", "setting": "neomycin 30 μg/ml, day 9", "result": "Diff"},
      {"measurement": "Morphology of cES cells", "setting": "neomycin 30 μg/ml, day 10", "result": "Diff/"},
      {"measurement": "Morphology of cES cells", "setting": "neomycin 40 μg/ml, day 1", "result": "ES"},
      {"measurement": "Morphology of cES cells", "setting": "neomycin 40 μg/ml, day 2", "result": "ES"},
      {"measurement": "Morphology of cES cells", "setting": "neomycin 40 μg/ml, day 3", "result": "ES"},
      {"measurement": "Morphology of cES cells", "setting": "neomycin 40 μg/ml, day 4", "result": "ES"},
      {"measurement": "Morphology of cES cells", "setting": "neomycin 40 μg/ml, day 5", "result": "ES/Diff"},
      {"measurement": "Morphology of cES cells", "setting": "neomycin 40 μg/ml, day 6", "result": "Diff/"},
      {"measurement": "Morphology of cES cells", "setting": "neomycin 40 μg/ml, day 7", "result": "dead"},
      {"measurement": "Morphology of cES cells", "setting": "neomycin 40 μg/ml, day 8", "result": "gone"},
      {"measurement": "Morphology of cES cells", "setting": "neomycin 40 μg/ml, day 9", "result": "gone"},
      {"measurement": "Morphology of cES cells", "setting": "neomycin 40 μg/ml, day 10", "result": "gone"},
      {"measurement": "Morphology of cES cells", "setting": "neomycin 50 μg/ml, day 1", "result": "ES"},
      {"measurement": "Morphology of cES cells", "setting": "neomycin 50 μg/ml, day 2", "result": "ES"},
      {"measurement": "Morphology of cES cells", "setting": "neomycin 50 μg/ml, day 3", "result": "ES"},
      {"measurement": "Morphology of cES cells", "setting": "neomycin 50 μg/ml, day 4", "result": "ES/Diff"},
      {"measurement": "Morphology of cES cells", "setting": "neomycin 50 μg/ml, day 5", "result": "ES/Diff"},
      {"measurement": "Morphology of cES cells", "setting": "neomycin 50 μg/ml, day 6", "result": "Diff/"},
      {"measurement": "Morphology of cES cells", "setting": "neomycin 50 μg/ml, day 7", "result": "Dead/"},
      {"measurement": "Morphology of cES cells", "setting": "neomycin 50 μg/ml, day 8", "result": "gone"},
      {"measurement": "Morphology of cES cells", "setting": "neomycin 50 μg/ml, day 9", "result": "gone"},
      {"measurement": "Morphology of cES cells", "setting": "neomycin 50 μg/ml, day 10", "result": "gone"},
      {"measurement": "Morphology of cES cells", "setting": "neomycin 60 μg/ml, day 1", "result": "ES"},
      {"measurement": "Morphology of cES cells", "setting": "neomycin 60 μg/ml, day 2", "result": "ES"},
      {"measurement": "Morphology of cES cells", "setting": "neomycin 60 μg/ml, day 3", "result": "ES"},
      {"measurement": "Morphology of cES cells", "setting": "neomycin 60 μg/ml, day 4", "result": "gone"},
      {"measurement": "Morphology of cES cells", "setting": "neomycin 60 μg/ml, day 5", "result": "gone"},
      {"measurement": "Morphology of cES cells", "setting": "neomycin 60 μg/ml, day 6", "result": "gone"},
      {"measurement": "Morphology of cES cells", "setting": "neomycin 60 μg/ml, day 7", "result": "gone"},
      {"measurement": "Morphology of cES cells", "setting": "neomycin 60 μg/ml, day 8", "result": "gone"},
      {"measurement": "Morphology of cES cells", "setting": "neomycin 60 μg/ml, day 9", "result": "gone"},
      {"measurement": "Morphology of cES cells", "setting": "neomycin 60 μg/ml, day 10", "result": "gone"},
      {"measurement": "Morphology of cES cells", "setting": "neomycin 100 μg/ml, day 1", "result": "ES/Diff"},
      {"measurement": "Morphology of cES cells", "setting": "neomycin 100 μg/ml, day 2", "result": "Diff"},
      {"measurement": "Morphology of cES cells", "setting": "neomycin 100 μg/ml, day 3", "result": "dead"},
      {"measurement": "Morphology of cES cells", "setting": "neomycin 100 μg/ml, day 4", "result": "gone"},
      {"measurement": "Morphology of cES cells", "setting": "neomycin 100 μg/ml, day 5", "result": "gone"},
      {"measurement": "Morphology of cES cells", "setting": "neomycin 100 μg/ml, day 6", "result": "gone"},
      {"measurement": "Morphology of cES cells", "setting": "neomycin 100 μg/ml, day 7", "result": "gone"},
      {"measurement": "Morphology of cES cells", "setting": "neomycin 100 μg/ml, day 8", "result": "gone"},
      {"measurement": "Morphology of cES cells", "setting": "neomycin 100 μg/ml, day 9", "result": "gone"},
      {"measurement": "Morphology of cES cells", "setting": "neomycin 100 μg/ml, day 10", "result": "gone"},
      {"measurement": "Morphology of cES cells", "setting": "neomycin 150 μg/ml, day 2", "result": "dead"},
      {"measurement": "Morphology of cES cells", "setting": "neomycin 150 μg/ml, day 3", "result": "dead"},
      {"measurement": "Morphology of cES cells", "setting": "neomycin 150 μg/ml, day 4", "result": "gone"},
      {"measurement": "Morphology of cES cells", "setting": "neomycin 150 μg/ml, day 5", "result": "gone"},
      {"measurement": "Morphology of cES cells", "setting": "neomycin 150 μg/ml, day 6", "result": "gone"},
      {"measurement": "Morphology of cES cells", "setting": "neomycin 150 μg/ml, day 7", "result": "gone"},
      {"measurement": "Morphology of cES cells", "setting": "neomycin 150 μg/ml, day 8", "result": "gone"},
      {"measurement": "Morphology of cES cells", "setting": "neomycin 150 μg/ml, day 9", "result": "gone"},
      {"measurement": "Morphology of cES cells", "setting": "neomycin 150 μg/ml, day 10", "result": "gone"},
      {"measurement": "Morphology of cES cells", "setting": "neomycin 200 μg/ml, day 2", "result": "dead"},
      {"measurement": "Morphology of cES cells", "setting": "neomycin 200 μg/ml, day 3", "result": "gone"},
      {"measurement": "Morphology of cES cells", "setting": "neomycin 200 μg/ml, day 4", "result": "gone"},
      {"measurement": "Morphology of cES cells", "setting": "neomycin 200 μg/ml, day 5", "result": "gone"},
      {"measurement": "Morphology of cES cells", "setting": "neomycin 200 μg/ml, day 6", "result": "gone"},
      {"measurement": "Morphology of cES cells", "setting": "neomycin 200 μg/ml, day 7", "result": "gone"},
      {"measurement": "Morphology of cES cells", "setting": "neomycin 200 μg/ml, day 8", "result": "gone"},
      {"measurement": "Morphology of cES cells", "setting": "neomycin 200 μg/ml, day 9", "result": "gone"},
      {"measurement": "Morphology of cES cells", "setting": "neomycin 200 μg/ml, day 10", "result": "gone"},
      {"measurement": "concentration that eliminated all cES cells", "setting": "neomycin, within 7 days", "result": "over 40 μg/ml"}
    ]}
  ]
}
